Data from ChEMBL document CHEMBL4507305, “Data for DCP probe TP-024” (2021).

Legend:
[1] = molecular target: AP2-associated protein kinase 1 (Homo sapiens) (UniProt Q2M2I8); settings: Compound concentration 1000.0 nM
[2] = test system: Tyrosine-protein kinase ABL1 (Homo sapiens), P00519 [F317I]; settings: Compound concentration 1000.0 nM
[3] = test system: Tyrosine-protein kinase ABL1 (Homo sapiens), P00519 [H396P]; settings: Compound concentration 1000.0 nM
[4] = molecular target: Tyrosine-protein kinase ABL1 (Homo sapiens) (UniProt P00519); settings: Compound concentration 1000.0 nM
[5] = molecular target: Protein-tyrosine kinase 6 (Homo sapiens) (UniProt Q13882); settings: Compound concentration 1000.0 nM
[6] = molecular target: Tyrosine-protein kinase BTK (Homo sapiens) (UniProt Q06187); settings: Compound concentration 1000.0 nM
[7] = molecular target: Calcium/calmodulin-dependent protein kinase type II subunit delta (Homo sapiens) (UniProt Q13557); settings: Compound concentration 1000.0 nM
[8] = molecular target: Calcium/calmodulin-dependent protein kinase type IV (Homo sapiens) (UniProt Q16566); settings: Compound concentration 1000.0 nM
[9] = molecular target: Cyclin-dependent kinase 9 (Homo sapiens) (UniProt P50750); settings: Compound concentration 1000.0 nM
[10] = molecular target: Cyclin-dependent kinase-like 1 (Homo sapiens) (UniProt Q00532); settings: Compound concentration 1000.0 nM
[11] = molecular target: Casein kinase II subunit alpha (Homo sapiens) (UniProt P68400); settings: Compound concentration 1000.0 nM
[12] = test system: Epidermal growth factor receptor (Homo sapiens), P00533 [UNDEFINED MUTATION]; settings: Compound concentration 1000.0 nM
[13] = molecular target: Ephrin type-A receptor 8 (Homo sapiens) (UniProt P29322); settings: Compound concentration 1000.0 nM
[14] = molecular target: Mitogen-activated protein kinase 15 (Homo sapiens) (UniProt Q8TD08); settings: Compound concentration 1000.0 nM
[15] = molecular target: Tyrosine-protein kinase FRK (Homo sapiens) (UniProt P42685); settings: Compound concentration 1000.0 nM
[16] = molecular target: Rhodopsin kinase GRK1 (Homo sapiens) (UniProt Q15835); settings: Compound concentration 1000.0 nM
[17] = molecular target: Hormonally up-regulated neu tumor-associated kinase (Homo sapiens) (UniProt P57058); settings: Compound concentration 1000.0 nM
[18] = molecular target: Inhibitor of nuclear factor kappa-B kinase subunit epsilon (Homo sapiens) (UniProt Q14164); settings: Compound concentration 1000.0 nM
[19] = molecular target: Mitogen-activated protein kinase kinase kinase 13 (Homo sapiens) (UniProt O43283); settings: Compound concentration 1000.0 nM
[20] = molecular target: Mitogen-activated protein kinase kinase kinase 4 (Homo sapiens) (UniProt Q9Y6R4); settings: Compound concentration 1000.0 nM
[21] = molecular target: Misshapen-like kinase 1 (Homo sapiens) (UniProt Q8N4C8); settings: Compound concentration 1000.0 nM
[22] = molecular target: Serine/threonine-protein kinase PAK 4 (Homo sapiens) (UniProt O96013); settings: Compound concentration 1000.0 nM
[23] = molecular target: Cyclin-dependent kinase 17 (Homo sapiens) (UniProt Q00537); settings: Compound concentration 1000.0 nM
[24] = molecular target: Platelet-derived growth factor receptor beta (Homo sapiens) (UniProt P09619); settings: Compound concentration 1000.0 nM
[25] = molecular target: 3-phosphoinositide-dependent protein kinase 1 (Homo sapiens) (UniProt O15530); settings: Compound concentration 1000.0 nM
[26] = molecular target: Cyclin-dependent kinase 2 homolog (Plasmodium falciparum (isolate 3D7)) (UniProt P61075); settings: Compound concentration 1000.0 nM
[27] = molecular target: Phosphorylase b kinase gamma catalytic chain, skeletal muscle/heart isoform (Homo sapiens) (UniProt Q16816); settings: Compound concentration 1000.0 nM
[28] = molecular target: Phosphatidylinositol 4-kinase beta (Homo sapiens) (UniProt Q9UBF8); settings: Compound concentration 1000.0 nM
[29] = molecular target: Phosphatidylinositol 4-phosphate 5-kinase type-1 gamma (Homo sapiens) (UniProt O60331); settings: Compound concentration 1000.0 nM
[30] = molecular target: Serine/threonine-protein kinase SIK3 (Homo sapiens) (UniProt Q9Y2K2); settings: Compound concentration 1000.0 nM
[31] = molecular target: Serine/threonine-protein kinase RIO2 (Homo sapiens) (UniProt Q9BVS4); settings: Compound concentration 1000.0 nM
[32] = molecular target: Receptor-interacting serine/threonine-protein kinase 1 (Homo sapiens) (UniProt Q13546); settings: Compound concentration 1000.0 nM
[33] = molecular target: Ribosomal protein S6 kinase alpha-5 (Homo sapiens) (UniProt O75582); settings: Compound concentration 1000.0 nM
[34] = molecular target: Ribosomal protein S6 kinase alpha-1 (Homo sapiens) (UniProt Q15418); settings: Compound concentration 1000.0 nM
[35] = molecular target: Serine/threonine-protein kinase 35 (Homo sapiens) (UniProt Q8TDR2); settings: Compound concentration 1000.0 nM
[36] = molecular target: Serine/threonine-protein kinase TNNI3K (Homo sapiens) (UniProt Q59H18); settings: Compound concentration 1000.0 nM
[37] = molecular target: High affinity nerve growth factor receptor (Homo sapiens) (UniProt P04629); settings: Compound concentration 1000.0 nM
[38] = molecular target: Serine/threonine-protein kinase 32A (Homo sapiens) (UniProt Q8WU08); settings: Compound concentration 1000.0 nM
[39] = molecular target: 5-hydroxytryptamine receptor 1D (Homo sapiens) (UniProt P28221); settings: Compound concentration 10.0 uM
[40] = molecular target: Sodium-dependent serotonin transporter (Homo sapiens) (UniProt P31645); settings: Compound concentration 10.0 uM
[41] = molecular target: Histamine H3 receptor (Homo sapiens) (UniProt Q9Y5N1); settings: Compound concentration 10.0 uM
[42] = molecular target: Muscarinic acetylcholine receptor M2 (Homo sapiens) (UniProt P08172); settings: Compound concentration 10.0 uM
[43] = molecular target: GABA-A receptor; anion channel (Rattus norvegicus) (UniProt O09028+P15431+P18506+P18508+P19969+P20236+P23574+P23576+P28471+P28473+P30191+P62813+P63079+P63138+Q91ZM7+Q9ES14); settings: Compound concentration 10.0 uM

Chain of Cyclin-dependent kinase-like 1 (Homo sapiens) (Q00532 whole entry): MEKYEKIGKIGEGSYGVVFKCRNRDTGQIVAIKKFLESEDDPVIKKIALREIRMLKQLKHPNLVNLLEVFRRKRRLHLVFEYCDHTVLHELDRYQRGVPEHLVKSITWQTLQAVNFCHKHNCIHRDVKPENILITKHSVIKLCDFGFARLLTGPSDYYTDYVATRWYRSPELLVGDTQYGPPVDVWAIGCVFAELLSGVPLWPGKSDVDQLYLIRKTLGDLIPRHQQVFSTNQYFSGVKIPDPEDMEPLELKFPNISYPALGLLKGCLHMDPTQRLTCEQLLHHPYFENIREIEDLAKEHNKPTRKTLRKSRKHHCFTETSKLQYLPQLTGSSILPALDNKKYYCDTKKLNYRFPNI
Chain of Casein kinase II subunit alpha (Homo sapiens) (P68400 whole entry, looked up): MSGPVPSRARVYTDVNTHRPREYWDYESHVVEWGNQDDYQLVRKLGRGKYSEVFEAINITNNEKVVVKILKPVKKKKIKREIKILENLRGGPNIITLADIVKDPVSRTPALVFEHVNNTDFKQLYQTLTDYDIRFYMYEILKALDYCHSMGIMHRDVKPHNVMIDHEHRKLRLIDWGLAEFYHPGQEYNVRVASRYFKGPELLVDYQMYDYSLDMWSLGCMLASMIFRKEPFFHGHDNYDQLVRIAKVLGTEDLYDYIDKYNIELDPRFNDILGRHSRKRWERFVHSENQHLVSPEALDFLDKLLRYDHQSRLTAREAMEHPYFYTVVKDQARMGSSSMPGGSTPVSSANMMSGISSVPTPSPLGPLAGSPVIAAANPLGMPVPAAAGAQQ
Chain of AP2-associated protein kinase 1 (Homo sapiens) (Q2M2I8 whole entry, looked up): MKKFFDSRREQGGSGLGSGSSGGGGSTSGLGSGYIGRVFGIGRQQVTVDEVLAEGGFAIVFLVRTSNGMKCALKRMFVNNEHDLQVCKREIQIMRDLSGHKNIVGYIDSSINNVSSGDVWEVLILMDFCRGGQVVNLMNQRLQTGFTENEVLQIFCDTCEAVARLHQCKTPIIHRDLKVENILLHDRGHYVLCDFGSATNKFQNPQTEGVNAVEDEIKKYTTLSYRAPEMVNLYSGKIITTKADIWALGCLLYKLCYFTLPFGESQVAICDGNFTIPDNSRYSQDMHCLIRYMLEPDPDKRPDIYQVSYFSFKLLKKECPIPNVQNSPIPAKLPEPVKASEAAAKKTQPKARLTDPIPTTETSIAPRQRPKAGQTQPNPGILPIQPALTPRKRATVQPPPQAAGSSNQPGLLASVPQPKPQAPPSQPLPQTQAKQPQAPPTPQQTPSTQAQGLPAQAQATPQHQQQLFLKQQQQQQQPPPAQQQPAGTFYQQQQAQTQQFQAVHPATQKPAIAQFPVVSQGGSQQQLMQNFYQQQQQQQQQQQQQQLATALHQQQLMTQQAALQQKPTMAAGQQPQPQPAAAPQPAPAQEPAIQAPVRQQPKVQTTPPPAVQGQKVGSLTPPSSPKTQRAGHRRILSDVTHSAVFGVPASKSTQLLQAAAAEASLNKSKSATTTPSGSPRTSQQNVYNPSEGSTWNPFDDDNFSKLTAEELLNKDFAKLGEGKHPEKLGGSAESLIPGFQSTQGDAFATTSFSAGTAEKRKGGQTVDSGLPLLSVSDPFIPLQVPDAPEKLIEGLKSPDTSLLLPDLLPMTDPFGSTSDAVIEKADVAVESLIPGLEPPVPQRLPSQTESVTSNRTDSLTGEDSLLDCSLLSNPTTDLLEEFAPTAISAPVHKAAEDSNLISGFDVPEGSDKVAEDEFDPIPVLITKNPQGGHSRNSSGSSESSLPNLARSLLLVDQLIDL
Chain of Tyrosine-protein kinase FRK (Homo sapiens) (P42685 whole entry): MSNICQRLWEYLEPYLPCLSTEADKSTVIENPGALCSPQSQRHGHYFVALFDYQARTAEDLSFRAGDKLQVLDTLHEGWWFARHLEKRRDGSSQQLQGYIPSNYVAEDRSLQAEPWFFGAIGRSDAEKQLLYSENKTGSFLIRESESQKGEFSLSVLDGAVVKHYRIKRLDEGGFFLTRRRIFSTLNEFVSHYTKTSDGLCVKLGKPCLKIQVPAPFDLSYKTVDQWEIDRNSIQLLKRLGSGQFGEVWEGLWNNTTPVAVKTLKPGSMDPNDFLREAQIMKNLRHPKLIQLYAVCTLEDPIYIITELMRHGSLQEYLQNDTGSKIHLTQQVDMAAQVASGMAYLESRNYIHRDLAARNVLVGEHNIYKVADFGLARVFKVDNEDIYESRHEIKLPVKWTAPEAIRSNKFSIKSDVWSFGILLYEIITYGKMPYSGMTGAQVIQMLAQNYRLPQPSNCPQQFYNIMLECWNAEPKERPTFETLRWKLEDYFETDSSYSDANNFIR
Chain of Rhodopsin kinase GRK1 (Homo sapiens) (Q15835 whole entry): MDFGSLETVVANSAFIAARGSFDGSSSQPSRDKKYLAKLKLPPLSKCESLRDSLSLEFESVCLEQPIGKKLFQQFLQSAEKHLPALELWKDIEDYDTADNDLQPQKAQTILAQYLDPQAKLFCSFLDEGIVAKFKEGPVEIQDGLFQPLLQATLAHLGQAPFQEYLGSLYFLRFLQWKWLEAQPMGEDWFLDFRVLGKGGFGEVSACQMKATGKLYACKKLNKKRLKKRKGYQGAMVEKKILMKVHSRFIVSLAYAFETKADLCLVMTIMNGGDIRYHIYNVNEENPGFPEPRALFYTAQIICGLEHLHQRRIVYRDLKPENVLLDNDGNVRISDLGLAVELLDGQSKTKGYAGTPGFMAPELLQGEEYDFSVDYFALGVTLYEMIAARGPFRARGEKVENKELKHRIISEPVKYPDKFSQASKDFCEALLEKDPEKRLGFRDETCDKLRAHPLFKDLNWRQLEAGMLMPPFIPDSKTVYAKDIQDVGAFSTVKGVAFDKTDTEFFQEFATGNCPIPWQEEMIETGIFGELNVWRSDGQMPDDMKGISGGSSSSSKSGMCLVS
Chain of Cyclin-dependent kinase 9 (Homo sapiens) (P50750 whole entry): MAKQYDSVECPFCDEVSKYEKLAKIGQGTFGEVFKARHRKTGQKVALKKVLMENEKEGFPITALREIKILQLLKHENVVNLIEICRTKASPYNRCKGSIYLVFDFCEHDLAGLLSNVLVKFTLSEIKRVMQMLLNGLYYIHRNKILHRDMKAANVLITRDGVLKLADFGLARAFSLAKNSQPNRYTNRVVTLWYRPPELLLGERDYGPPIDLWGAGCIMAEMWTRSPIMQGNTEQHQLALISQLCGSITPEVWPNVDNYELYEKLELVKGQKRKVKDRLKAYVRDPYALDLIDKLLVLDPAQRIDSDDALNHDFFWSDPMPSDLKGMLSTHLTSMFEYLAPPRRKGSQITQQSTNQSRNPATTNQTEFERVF
Chain of Hormonally up-regulated neu tumor-associated kinase (Homo sapiens) (P57058 whole entry): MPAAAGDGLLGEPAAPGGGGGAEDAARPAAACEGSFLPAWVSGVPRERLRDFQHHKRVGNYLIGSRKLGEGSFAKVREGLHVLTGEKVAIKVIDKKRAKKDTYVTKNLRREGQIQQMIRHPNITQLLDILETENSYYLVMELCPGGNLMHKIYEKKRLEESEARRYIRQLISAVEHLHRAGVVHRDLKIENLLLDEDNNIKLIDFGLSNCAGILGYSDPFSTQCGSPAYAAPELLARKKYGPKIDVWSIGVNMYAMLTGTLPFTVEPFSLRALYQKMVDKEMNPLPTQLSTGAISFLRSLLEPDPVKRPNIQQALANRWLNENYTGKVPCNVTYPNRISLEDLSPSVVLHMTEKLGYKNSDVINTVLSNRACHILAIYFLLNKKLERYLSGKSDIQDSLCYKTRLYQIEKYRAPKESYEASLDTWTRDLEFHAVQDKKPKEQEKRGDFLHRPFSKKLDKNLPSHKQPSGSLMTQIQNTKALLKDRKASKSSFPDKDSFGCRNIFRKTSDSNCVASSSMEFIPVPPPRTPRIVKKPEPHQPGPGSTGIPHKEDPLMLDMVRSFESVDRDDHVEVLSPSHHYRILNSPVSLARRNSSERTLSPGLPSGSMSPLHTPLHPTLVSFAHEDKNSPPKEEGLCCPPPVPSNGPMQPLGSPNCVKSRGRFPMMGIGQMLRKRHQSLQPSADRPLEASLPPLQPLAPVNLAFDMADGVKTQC
Chain of Calcium/calmodulin-dependent protein kinase type II subunit delta (Homo sapiens) (Q13557 whole entry): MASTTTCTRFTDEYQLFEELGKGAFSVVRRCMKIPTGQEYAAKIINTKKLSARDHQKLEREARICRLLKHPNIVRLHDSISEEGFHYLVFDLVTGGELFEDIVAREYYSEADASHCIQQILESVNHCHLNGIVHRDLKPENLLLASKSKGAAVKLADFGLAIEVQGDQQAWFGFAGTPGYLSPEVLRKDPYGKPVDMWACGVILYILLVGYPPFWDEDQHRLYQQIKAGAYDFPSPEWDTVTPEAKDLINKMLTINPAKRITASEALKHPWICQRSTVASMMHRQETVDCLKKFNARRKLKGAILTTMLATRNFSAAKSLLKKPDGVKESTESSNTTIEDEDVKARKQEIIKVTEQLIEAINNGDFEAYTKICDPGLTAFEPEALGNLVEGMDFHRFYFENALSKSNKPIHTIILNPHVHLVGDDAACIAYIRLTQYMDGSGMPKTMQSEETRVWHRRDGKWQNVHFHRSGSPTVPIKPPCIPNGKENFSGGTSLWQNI
Chain of Muscarinic acetylcholine receptor M2 (Homo sapiens) (P08172 whole entry): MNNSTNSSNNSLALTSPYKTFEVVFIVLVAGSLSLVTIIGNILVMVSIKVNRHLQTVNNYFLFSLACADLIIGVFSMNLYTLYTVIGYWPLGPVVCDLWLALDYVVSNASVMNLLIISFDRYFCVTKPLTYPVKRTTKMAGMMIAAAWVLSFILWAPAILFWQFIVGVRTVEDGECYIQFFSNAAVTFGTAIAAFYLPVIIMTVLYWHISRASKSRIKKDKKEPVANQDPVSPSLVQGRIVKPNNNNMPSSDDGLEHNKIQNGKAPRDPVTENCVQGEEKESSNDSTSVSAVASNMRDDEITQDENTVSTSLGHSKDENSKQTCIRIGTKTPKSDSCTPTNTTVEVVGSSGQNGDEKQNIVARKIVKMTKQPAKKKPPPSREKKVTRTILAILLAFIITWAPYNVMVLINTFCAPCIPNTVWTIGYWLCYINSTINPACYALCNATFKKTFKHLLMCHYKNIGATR

Cc1nc(Cc2cccc(C(F)(F)F)c2)sc1-c1ccc(C(N)=O)nc1 [TP-024n]
inactive: residual activity [1] 96% | residual activity [2] 100% | residual activity [3] 96% | residual activity [4] 98% | residual activity [5] 100% | residual activity [6] 100% | residual activity [7] 100% | residual activity [8] 100% | residual activity [9] 100% | residual activity [10] 85% | residual activity [11] 100% | residual activity [12] 83% | residual activity [13] 100% | residual activity [14] 100% | residual activity [15] 100% | residual activity [16] 98% | residual activity [17] 90% | residual activity [18] 76% | residual activity [19] 100% | residual activity [20] 72% | residual activity [21] 92% | residual activity [22] 96% | residual activity [23] 83% | residual activity [24] 92% | residual activity [25] 82% | residual activity [26] 100% | residual activity [27] 84% | residual activity [28] 91% | residual activity [29] 84% | residual activity [30] 75% | residual activity [31] 98% | residual activity [32] 91% | residual activity [33] 100% | residual activity [34] 100% | residual activity [35] 100% | residual activity [36] 100% | residual activity [37] 64% | residual activity [38] 76% | inhibition [39] 8.49% | inhibition [40] -7.18% | inhibition [41] 3.48% | inhibition [42] 12.8% | inhibition [43] 9.72%

Cc1cc(-n2nc(Cc3cc(F)cc(C(F)(F)F)c3)nc2C)ccc1C(N)=O [TP-024]
inactive: residual activity [1] 100% | residual activity [2] 100% | residual activity [3] 98% | residual activity [4] 100% | residual activity [5] 100% | residual activity [6] 100% | residual activity [7] 100% | residual activity [8] 100% | residual activity [9] 100% | residual activity [10] 71% | residual activity [11] 100% | residual activity [12] 83% | residual activity [13] 100% | residual activity [14] 95% | residual activity [15] 100% | residual activity [16] 87% | residual activity [17] 89% | residual activity [18] 82% | residual activity [19] 100% | residual activity [20] 98% | residual activity [21] 93% | residual activity [22] 100% | residual activity [23] 77% | residual activity [24] 98% | residual activity [25] 100% | residual activity [26] 100% | residual activity [27] 98% | residual activity [28] 100% | residual activity [29] 66% | residual activity [30] 83% | residual activity [31] 100% | residual activity [32] 90% | residual activity [33] 97% | residual activity [34] 100% | residual activity [35] 100% | residual activity [36] 100% | residual activity [37] 97% | residual activity [38] 85% | inhibition [39] 12.5% | inhibition [40] -1.29% | inhibition [41] 11.4% | inhibition [42] 5.69% | inhibition [43] 14.4%
